# Laboratory results from patent US20100105651A1, “ANTAGONISTS OF SNS SODIUM CHANNELS” (priority 2005, published 2010).
# Where a name gives a salt, the structure may show the parent alone.
# Target: T1, human NaV1.8 (hNaV1.8) ion channel (Homo sapiens, UniProt Q9Y5Y9)
# T1 construct: expressed in transfected cells
# Assay: Inhibition of Human NaV1.8 stably expressed in SH-SY-5Y cells (membrane potential dye fluorescence assay)
# Assay type: cell-based
# Settings: SH-SY-5Y cells stably expressing hNaV1.8; FLIPR membrane potential dye; 10 μM pyrethroid, 250 nM TTX; test range 100 μM-0.05 μM; read-out: hNav1.8 IC50
# T1 sequence (Q9Y5Y9 whole entry): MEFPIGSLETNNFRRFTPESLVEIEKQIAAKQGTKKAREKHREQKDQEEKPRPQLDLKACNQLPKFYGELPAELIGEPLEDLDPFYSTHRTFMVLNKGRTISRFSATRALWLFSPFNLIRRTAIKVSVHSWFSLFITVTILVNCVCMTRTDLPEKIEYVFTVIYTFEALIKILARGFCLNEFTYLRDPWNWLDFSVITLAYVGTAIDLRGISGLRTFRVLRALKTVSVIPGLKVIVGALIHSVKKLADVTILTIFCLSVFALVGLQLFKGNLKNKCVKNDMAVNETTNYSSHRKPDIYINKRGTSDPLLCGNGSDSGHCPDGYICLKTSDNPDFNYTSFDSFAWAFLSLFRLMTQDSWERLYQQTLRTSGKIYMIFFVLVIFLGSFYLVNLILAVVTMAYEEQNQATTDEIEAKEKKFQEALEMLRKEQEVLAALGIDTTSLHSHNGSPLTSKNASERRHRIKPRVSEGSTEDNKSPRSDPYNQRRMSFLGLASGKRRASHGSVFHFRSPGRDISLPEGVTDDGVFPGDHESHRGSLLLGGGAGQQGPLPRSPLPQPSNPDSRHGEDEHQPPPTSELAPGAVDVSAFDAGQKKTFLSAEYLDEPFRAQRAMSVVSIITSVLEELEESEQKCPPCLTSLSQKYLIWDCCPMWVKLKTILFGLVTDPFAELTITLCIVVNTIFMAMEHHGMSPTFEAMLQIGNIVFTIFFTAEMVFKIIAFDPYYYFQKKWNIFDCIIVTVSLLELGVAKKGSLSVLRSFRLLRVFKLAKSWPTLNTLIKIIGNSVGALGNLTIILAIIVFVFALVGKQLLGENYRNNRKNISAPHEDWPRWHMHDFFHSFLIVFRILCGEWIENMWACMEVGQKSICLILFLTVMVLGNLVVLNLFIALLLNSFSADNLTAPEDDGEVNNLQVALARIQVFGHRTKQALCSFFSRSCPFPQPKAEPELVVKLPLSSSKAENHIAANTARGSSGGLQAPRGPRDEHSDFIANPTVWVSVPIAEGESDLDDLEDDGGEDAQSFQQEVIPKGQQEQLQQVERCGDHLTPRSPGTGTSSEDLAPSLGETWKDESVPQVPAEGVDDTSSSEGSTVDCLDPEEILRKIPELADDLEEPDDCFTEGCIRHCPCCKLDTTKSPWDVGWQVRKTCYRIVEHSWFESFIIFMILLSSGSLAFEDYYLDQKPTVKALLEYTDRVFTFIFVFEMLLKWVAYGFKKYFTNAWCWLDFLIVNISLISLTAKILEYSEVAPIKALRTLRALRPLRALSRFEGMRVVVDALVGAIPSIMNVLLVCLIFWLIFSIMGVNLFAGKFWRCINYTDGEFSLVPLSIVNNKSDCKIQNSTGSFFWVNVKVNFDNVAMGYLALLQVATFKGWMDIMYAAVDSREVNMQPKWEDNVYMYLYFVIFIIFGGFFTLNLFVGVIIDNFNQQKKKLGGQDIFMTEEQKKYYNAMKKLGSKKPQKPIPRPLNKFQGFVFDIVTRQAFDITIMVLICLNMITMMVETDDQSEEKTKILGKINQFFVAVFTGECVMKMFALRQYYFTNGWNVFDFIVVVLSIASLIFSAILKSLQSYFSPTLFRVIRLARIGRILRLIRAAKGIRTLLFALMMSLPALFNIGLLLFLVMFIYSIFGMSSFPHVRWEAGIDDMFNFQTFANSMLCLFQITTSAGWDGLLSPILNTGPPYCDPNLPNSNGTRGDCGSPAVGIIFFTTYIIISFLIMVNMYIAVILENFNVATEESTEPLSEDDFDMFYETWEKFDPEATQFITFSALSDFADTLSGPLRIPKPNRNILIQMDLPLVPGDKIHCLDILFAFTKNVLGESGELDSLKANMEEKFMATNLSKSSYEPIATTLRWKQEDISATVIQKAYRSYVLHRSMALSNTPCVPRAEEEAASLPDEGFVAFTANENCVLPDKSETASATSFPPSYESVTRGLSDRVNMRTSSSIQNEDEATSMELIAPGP
row,SMILES,IC50 [nM]
1,"O=C(Nc1ccc(Oc2ccc(F)cc2)cc1)N1CC(NC2CCc3cc(F)ccc32)C1 (stereo not drawn) [Example 136, 3-(5-Fluoro-indan-1-ylamino)-azetidine-1-carboxylic acid [4-(4-fluoro-phenoxy)-phenyl]-amide methanesulfonate salt]",210
2,"O=C(Nc1ccc(Oc2ccccc2)cc1)N1CC(NC2CCc3cc(F)ccc32)C1 (stereo not drawn) [Example 137, 3-(5-Fluoro-indan-1-ylamino)-azetidine-1-carboxylic acid (4-phenoxy-phenyl)-amide fumarate salt]",270
3,"O=C(Nc1ccc(Oc2ccc(F)cc2)cc1)N1CC(NC2CCc3cc(Cl)ccc32)C1 (stereo not drawn) [Example 138, 3-(5-Chloro-indan-1-ylamino)-azetidine-1-carboxylic acid [4-(4-fluoro-phenoxy)-phenyl]-amide methanesulfonate salt]",430
